This note sets out measurements from PMC12823391 (Nature, 2025).

The structures appear in SMILES notation.

Test [1] concerns the target T1, MBP–NLRX1 (87–975 amino acids) (Homo sapiens, UniProt Q86UT6). Kind of test: biotin-CoASH pull-down and competition with CoASH, immunoblot. The class given is binding. The settings on record: labelled compound; unlabelled CoASH as competitor. For orientation: A western blot detects proteins with antibodies after separation by electrophoresis.
The target of test [2] is T1, MBP–NLRX1 (87–975 amino acids). Description: biotin-acyl-CoA pull-down, immunoblot. The class given is binding. Conditions: labelled compound (biotin conjugate).
Test [3] addresses endogenous NLRX1 (HeLa cell lysate) (Homo sapiens, UniProt Q86UT6). Description: cellular thermal shift assay on lysate, immunoblot. The class given is biochemical. The settings on record: 500 µM AcCoA, 44.6-65 °C, 3 min.
The target of test [4] is T1, MBP–NLRX1 (87–975 amino acids). Kind of test: competition of AcCoA with biotin-AcCoA pull-down, immunoblot. The test is classed as binding. Conditions: unlabelled AcCoA as competitor.

T1 sequence (Q86UT6 87-975): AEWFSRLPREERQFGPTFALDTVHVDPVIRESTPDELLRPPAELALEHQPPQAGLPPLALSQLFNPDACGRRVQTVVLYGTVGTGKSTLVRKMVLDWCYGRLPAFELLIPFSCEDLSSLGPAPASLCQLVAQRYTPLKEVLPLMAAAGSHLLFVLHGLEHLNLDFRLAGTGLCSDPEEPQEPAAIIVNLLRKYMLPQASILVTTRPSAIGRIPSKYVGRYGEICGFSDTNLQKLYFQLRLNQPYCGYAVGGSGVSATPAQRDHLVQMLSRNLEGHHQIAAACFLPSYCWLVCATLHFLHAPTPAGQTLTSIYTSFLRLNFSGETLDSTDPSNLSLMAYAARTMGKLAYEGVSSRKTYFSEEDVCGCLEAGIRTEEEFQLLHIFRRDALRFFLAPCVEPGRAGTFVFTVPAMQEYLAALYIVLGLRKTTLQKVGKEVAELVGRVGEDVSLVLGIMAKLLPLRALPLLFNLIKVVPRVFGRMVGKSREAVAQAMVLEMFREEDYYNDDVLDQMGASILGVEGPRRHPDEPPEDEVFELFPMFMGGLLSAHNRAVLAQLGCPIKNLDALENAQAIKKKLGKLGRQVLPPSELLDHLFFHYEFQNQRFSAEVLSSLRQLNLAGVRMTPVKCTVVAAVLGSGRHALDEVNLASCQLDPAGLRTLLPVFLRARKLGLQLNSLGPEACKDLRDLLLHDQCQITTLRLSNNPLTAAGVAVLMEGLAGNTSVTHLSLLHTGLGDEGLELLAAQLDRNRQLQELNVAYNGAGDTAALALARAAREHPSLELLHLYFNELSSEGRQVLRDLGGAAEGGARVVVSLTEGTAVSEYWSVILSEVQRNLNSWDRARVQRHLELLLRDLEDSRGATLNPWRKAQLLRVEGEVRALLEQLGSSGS
Chain of endogenous NLRX1 (HeLa cell lysate) (Q86UT6 87-975): as above

On to `CC(C)(COP(=O)(O)OP(=O)(O)OC[C@H]1O[C@@H](n2cnc3c(N)ncnc32)[C@H](O)[C@@H]1OP(=O)(O)O)[C@@H](O)C(=O)NCCC(=O)NCCS` [CoASH], for which, in test [1], the “biotin-CoASH pull-down and competition with CoASH, immunoblot” value is on record as “CoASH was associated with recombinant NLRX1 to a lesser extent than AcCoA was”.

Take `CC(C)(COP(=O)(O)OP(=O)(O)OC[C@H]1O[C@@H](n2cnc3c(N)ncnc32)[C@H](O)[C@@H]1OP(=O)(O)O)[C@@H](O)C(=O)NCCC(=O)NCCSC(=O)CC(=O)O` [malonyl-CoA]: the “biotin-acyl-CoA pull-down, immunoblot” value in test [2] was “no interaction between recombinant NLRX1 and malonyl-CoA or succinyl-CoA was detected”.

As to `CC(C)(COP(=O)(O)OP(=O)(O)OC[C@H]1O[C@@H](n2cnc3c(N)ncnc32)[C@H](O)[C@@H]1OP(=O)(O)O)[C@@H](O)C(=O)NCCC(=O)NCCSC(=O)CCC(=O)O` [succinyl-CoA], the “biotin-acyl-CoA pull-down, immunoblot” value in test [2] was “no interaction between recombinant NLRX1 and malonyl-CoA or succinyl-CoA was detected”.

For `CC(=O)SCCNC(=O)CCNC(=O)[C@H](O)C(C)(C)COP(=O)(O)OP(=O)(O)OC[C@H]1O[C@@H](n2cnc3c(N)ncnc32)[C@H](O)[C@@H]1OP(=O)(O)O` [AcCoA], the thermal shift entry in test [3] was “AcCoA addition substantially increased the stability of NLRX1 protein level compared with CoASH”. In addition, the “competition of AcCoA with biotin-AcCoA pull-down, immunoblot” value in test [4] is on record as “increasing concentrations of AcCoA competed with biotin–AcCoA for NLRX1 binding”.
